We go through nine molecules from PubChem BioAssay (NCI).

Test systems include 786-0 renal; CAKI-1 renal; DU-145 prostate; HCT-15 colon; HOP-62 NSCLC; HS 578T breast; HT29 colon; K-562 leukemia; NCI-H226 lung; RXF 393 renal; SK-MEL-28 melanoma; SK-MEL-5 melanoma; UACC-257 melanoma; UO-31 renal; SK-MEL-2 melanoma; BT-549 breast.
What all share (assay): NCI-60 cell line screen, 48 h

SMILES strings stand for the structures.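 How tested: cells in 96-well plates exposed to compound for 48 hours at five concentrations. TGI marks complete inhibition of growth.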 Where only a bound is given, the exact number is not on record here.

As to `CCOC(=O)c1sc2c(c1OC(=O)c1cccs1)c(=O)n(-c1ccccc1)c(=S)n2-c1ccccc1`, the TGI in the test on 786-0 renal came to 24.4 µM; with CAKI-1 renal, 75.8 µM; in the test on DU-145 prostate, 94.1 µM; in the test on HCT-15 colon, 43.4 µM; with HOP-62 NSCLC, 50.3 µM; in the test with HS 578T breast it was 83 µM. Also, the TGI is 17.2 µM in the test with HT29 colon; above 100 µM in the test with K-562 leukemia; 48.7 µM with NCI-H226 lung; 89.8 µM in the test on RXF 393 renal; 35.4 µM in the test with SK-MEL-28 melanoma; 32 µM in the test on SK-MEL-5 melanoma. Besides, the TGI with UACC-257 melanoma was above 100 µM; in the test with UO-31 renal, 0.925 µM.
In the case of `CCOC(=O)c1c(N2CCCC2)nsc1Nc1ccccc1`, the TGI in the test on 786-0 renal, with CAKI-1 renal, with DU-145 prostate, in the test with HCT-15 colon, in the test with HS 578T breast and in the test on HT29 colon was above 100 µM each time. Further, the TGI in the test on K-562 leukemia, with NCI-H226 lung, in the test with RXF 393 renal, in the test on SK-MEL-2 melanoma, with SK-MEL-28 melanoma and in the test with SK-MEL-5 melanoma was above 100 µM each time. The TGI in the test with UACC-257 melanoma and in the test on UO-31 renal was above 100 µM each time.
Consider `COc1cc2c(c(OC)c1OC)C(=O)[C@H](O)[C@H]2NC(N)=O`, for which the TGI with 786-0 renal, in the test with CAKI-1 renal, with DU-145 prostate, with HCT-15 colon, in the test on HOP-62 NSCLC and in the test on HS 578T breast was above 100 µM in each case. Moreover, the TGI in the test with HT29 colon, in the test on K-562 leukemia, in the test with NCI-H226 lung, in the test on RXF 393 renal, in the test with SK-MEL-28 melanoma and with SK-MEL-5 melanoma was above 100 µM throughout. For the same molecule, the TGI in the test on UACC-257 melanoma and with UO-31 renal was above 100 µM throughout.
Take `CCC(NC(C)c1ccccc1)C(O)c1ccc(OCc2ccccc2)c(OCc2ccccc2)c1` (centres undefined): the TGI came out at 27.1 µM in the test with 786-0 renal; 24.4 µM with CAKI-1 renal; 32.1 µM with DU-145 prostate; 29.9 µM in the test with HCT-15 colon; 32.2 µM in the test on HOP-62 NSCLC; 46.9 µM with HS 578T breast. The TGI amounted to 13 µM in the test with HT29 colon; 9.44 µM in the test on K-562 leukemia; 36.3 µM in the test on NCI-H226 lung; 23 µM in the test with RXF 393 renal; 29.1 µM in the test with SK-MEL-2 melanoma; 36 µM in the test with SK-MEL-28 melanoma. The TGI was determined as 14.4 µM in the test with SK-MEL-5 melanoma, 13.8 µM in the test on UACC-257 melanoma and 23.7 µM with UO-31 renal.
For `[N-]=[N+]=Nc1c(-c2ccccc2)c(Cl)nc2ccccc12`, the TGI with 786-0 renal was above 100 µM; with BT-549 breast it was 77.1 µM; in the test with CAKI-1 renal, above 100 µM; in the test with HCT-15 colon it was above 100 µM; with HOP-62 NSCLC, above 100 µM; in the test on HS 578T breast, above 100 µM. The TGI in the test with HT29 colon was 52.5 µM; with K-562 leukemia, above 100 µM; in the test on NCI-H226 lung, above 100 µM; with RXF 393 renal it was above 100 µM; in the test with SK-MEL-2 melanoma it was above 100 µM; in the test on SK-MEL-28 melanoma, above 100 µM. Further, the TGI in the test with SK-MEL-5 melanoma was 34.5 µM; with UACC-257 melanoma, 59.8 µM; with UO-31 renal, above 100 µM.
For `O=[N+]([O-])/C=C1\COCc2cc3c(cc21)OCO3`, the TGI was 44.3 µM in the test on 786-0 renal; 25.7 µM with CAKI-1 renal; 37.4 µM in the test with DU-145 prostate; 36.2 µM in the test on HCT-15 colon; above 100 µM in the test on HOP-62 NSCLC; 80.7 µM in the test on HS 578T breast. The TGI in the test on HT29 colon is 67.2 µM; in the test with K-562 leukemia, above 100 µM; in the test on NCI-H226 lung, 57.6 µM; in the test on RXF 393 renal it was 38.9 µM; with SK-MEL-28 melanoma it was 34.2 µM; in the test with SK-MEL-5 melanoma, 39.9 µM. The TGI in the test with UACC-257 melanoma turned out to be 40.9 µM; in the test with UO-31 renal, 34.7 µM.
`C=Cc1c(C)c(OC)cc2c1Oc1ccc(OC)c(C)c1CC2`: the TGI with 786-0 renal, in the test with CAKI-1 renal, with DU-145 prostate, in the test with HCT-15 colon, in the test on HOP-62 NSCLC and in the test with HS 578T breast was above 100 µM in each case. The TGI with HT29 colon, in the test on K-562 leukemia, in the test with NCI-H226 lung, in the test on RXF 393 renal, in the test on SK-MEL-2 melanoma and in the test with SK-MEL-28 melanoma was above 100 µM each time. Besides, the TGI in the test on SK-MEL-5 melanoma, in the test with UACC-257 melanoma and with UO-31 renal was above 100 µM each time.
With `O=C(c1ccccc1)c1ccc(COc2ccc(C(c3c(O)c4ccccc4oc3=O)c3c(O)c4ccccc4oc3=O)cc2)cc1`, the TGI with 786-0 renal is 61.5 µM; in the test on CAKI-1 renal, 45 µM; in the test on DU-145 prostate, above 100 µM; with HCT-15 colon, above 100 µM; in the test with HOP-62 NSCLC, 47.4 µM; in the test on HS 578T breast it was above 100 µM. In addition, the TGI with HT29 colon amounted to 34.9 µM; in the test with K-562 leukemia, 53.3 µM; with NCI-H226 lung it was 31 µM; in the test on RXF 393 renal, 44.5 µM; in the test with SK-MEL-2 melanoma it was 34.9 µM; with SK-MEL-28 melanoma, 47.4 µM. Besides, the figures for the TGI in the test on SK-MEL-5 melanoma, in the test with UACC-257 melanoma and in the test with UO-31 renal were 37.2 µM, 38.7 µM and 77.3 µM, respectively.
For `N#Cc1c(N)oc(-c2cccc([N+](=O)[O-])c2)c1C#N`, the TGI is 68.3 µM with 786-0 renal; 43.6 µM in the test with CAKI-1 renal; above 100 µM with DU-145 prostate; 30.7 µM with HCT-15 colon; above 100 µM in the test on HS 578T breast; 37.6 µM in the test with HT29 colon. Besides, the TGI in the test on NCI-H226 lung is above 100 µM; with RXF 393 renal, 57.3 µM; in the test on SK-MEL-2 melanoma, above 100 µM; with SK-MEL-28 melanoma it was 39.5 µM; in the test on SK-MEL-5 melanoma it was 37.7 µM; in the test on UACC-257 melanoma it was 48.9 µM. In the test on UO-31 renal, the TGI was determined as 30.8 µM.
